Series [1] concerns the target T1, KDR kinase (Homo sapiens, UniProt P35968).
T1 construct: purchased Carna 08-191
Put plainly: HTRF kinase activity inhibition, KDR. It is filed as biochemical. The following applies: for IC50: HTRF, ATP at Km; for Ratio (KDR/RET): KDR IC50 / RET IC50. The procedure, abridged: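 Inhibition of KDR kinase activity measured by homogeneous time-resolved fluorescence with a tyrosine-kinase KinEASE substrate kit and ATP.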
A general note: TR-FRET usually uses a lanthanide donor and a delayed reading to cut background.

Series [2] addresses T2, Ba/F3 KIF5B-RET cells (Homo sapiens, UniProt P07949).
T2 construct: fused on or other part: P33176 (Kinesin-1 heavy chain)
Briefly: Inhibition of proliferation of Ba/F3 KIF5B-RET cells (CellTiter-Glo). It is filed as cell-based. The conditions noted are these: 72 to 144 hours. On the procedure: When Ba/F3 KIF5B-RET cells were cultured to the appropriate cell density, cells were collected, and the cells were adjusted to the appropriate cell concentration using complete medium, and the cell suspension was spread in a 96-well plate, 90 μL per well, and placed in the wall of a 37° C., 5% CO2 incubator overnight; compound solutions of different concentrations were prepared using DMSO and culture medium; a solvent control was set, and the compound solution was added to a 96-well plate with […] at 37° C. in a 5% CO2 incubator for 72 to 144 hours, CellTiter-Glo solution was added thereto and mixed well by shaking, incubated for 10 minutes in the dark, and read by BioTek Synergy H1 microplate reader.
The IC50 values were obtained by using the luminescence signal values to calculate the inhibition rate, the concentrations and the inhibition rates were fitted to a nonlinear regression curve using Graphpad Prism software.

The test system of series [3] is TT cells (MTC, RET C634W). Put plainly: Inhibition of proliferation of TT cells (CellTiter-Glo, 72 h). The series is classed as cell-based. The following applies: Homo sapiens. The procedure:
TT cells were purchased from the cell bank of the Chinese Academy of Sciences.
When TT cells were cultured to the appropriate fusion level, TT cells were collected, and the cells were adjusted to the appropriate cell concentration using complete medium, and the cell suspension was spread in a 96-well plate, 90 μL per well, and placed to the wall of a 37° C., 5% CO2 incubator overnight; and compound solutions of different concentrations were prepared using DMSO and culture medium; and a solvent control was set, the compound solution was added to a 96-well plate, 10 μL per well, and placed to the wall of a 37° C., 5% CO2 incubator for 72 hours; CellTiter-Glo solution was added thereto and the mixture was mixed well by shaking, incubated for 10 minutes in the dark, and read by BioTek Synergy H1 microplate reader.
The IC50 values were obtained by using luminescence signal values to calculate the inhibition rate, the concentration and the inhibition rate were fitted to a nonlinear regression curve using Graphpad Prism software.
A general note: Cellular ATP, detected with luciferase, serves as a proxy for viable cell number.

The target of series [4] is T3, RET kinase (Homo sapiens, UniProt P07949).
T3 construct: purchased Carna 08-159
T3 sequence (P07949 29-1114): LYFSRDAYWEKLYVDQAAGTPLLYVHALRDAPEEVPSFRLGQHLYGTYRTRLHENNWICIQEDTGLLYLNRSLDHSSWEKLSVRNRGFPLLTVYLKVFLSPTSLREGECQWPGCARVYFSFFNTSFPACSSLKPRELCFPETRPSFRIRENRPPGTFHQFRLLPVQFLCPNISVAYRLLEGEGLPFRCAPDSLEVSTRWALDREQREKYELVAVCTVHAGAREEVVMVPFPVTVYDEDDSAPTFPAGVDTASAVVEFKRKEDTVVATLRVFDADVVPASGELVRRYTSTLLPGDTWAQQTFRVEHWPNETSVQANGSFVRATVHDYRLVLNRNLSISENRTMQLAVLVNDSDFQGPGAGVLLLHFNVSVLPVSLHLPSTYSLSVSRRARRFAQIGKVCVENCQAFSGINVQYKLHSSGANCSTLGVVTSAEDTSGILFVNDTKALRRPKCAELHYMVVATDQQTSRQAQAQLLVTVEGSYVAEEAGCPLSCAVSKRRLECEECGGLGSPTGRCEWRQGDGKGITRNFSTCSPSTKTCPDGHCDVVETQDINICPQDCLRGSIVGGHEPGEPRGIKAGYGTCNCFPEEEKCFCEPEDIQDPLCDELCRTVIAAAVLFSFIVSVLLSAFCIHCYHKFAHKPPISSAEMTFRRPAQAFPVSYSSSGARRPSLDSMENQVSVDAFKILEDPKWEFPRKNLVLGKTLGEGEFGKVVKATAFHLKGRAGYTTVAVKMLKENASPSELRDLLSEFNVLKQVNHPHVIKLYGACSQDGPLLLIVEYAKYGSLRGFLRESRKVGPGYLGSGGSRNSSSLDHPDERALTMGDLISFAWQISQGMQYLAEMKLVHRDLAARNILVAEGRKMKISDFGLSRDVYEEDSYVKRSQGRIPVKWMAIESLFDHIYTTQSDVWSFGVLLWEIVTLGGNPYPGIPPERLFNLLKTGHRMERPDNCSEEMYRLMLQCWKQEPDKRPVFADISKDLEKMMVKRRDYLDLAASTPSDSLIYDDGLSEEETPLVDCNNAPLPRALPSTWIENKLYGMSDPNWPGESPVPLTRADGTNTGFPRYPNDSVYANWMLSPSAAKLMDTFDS
Briefly: HTRF kinase activity inhibition, RET wild-type. It is filed as biochemical. The following applies: ATP at Km. The procedure, abridged: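 HTRF (KinEASE-TK) kinase assay with recombinant RET wild-type, RET V804M, RET V804L and KIF5B-RET enzymes plus ATP.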

Series [5] can be described thus: Balb/C mouse pharmacokinetics, oral 5 mg/kg. The series is classed as in vivo, Balb/C mice. The following applies: male, p.o. 5 mg/kg, plasma. The procedure: The pharmacokinetic behavior of the following compound embodiments, administered orally at a dose of 5 mg/kg in plasma in mice, was studied using Balb/C mice as test animals.
Balb/C Mouse 6/embodiment, male, Shanghai Jiesijie Laboratory Animal Co., Ltd, Animal Production License No. (SCXK (Shanghai) 2013-0006 N0.311620400001794).
Balb/C mice, males; p.o. after overnight fasting, respectively, at a dose of 5 mg/kg, administered in a volume of 10 mL/kg.
0.5% CMC-Na (1% Tween80) was dissolved by ultrasound, and prepared into clear solution or uniform suspension.
Before and after administration, 0.1 mL of blood was collected from mice at 0, 0.5, 1, 2, 4, 6, 8 and 24 hours by orbital collection, placed in EDTA-K2 tubes, centrifuged at 6000 rpm at 4° C. for 6 minutes to separate plasma, and stored at −80° C.
2.5 Sample Handling: • 1) 40 μL of plasma sample was precipitated by adding 160 μL of acetonitrile, mixed and centrifuged at 3500×g for 5-20 minutes. • 2) 100 μL of the supernatant solution after treatment was taken to analyze the concentration of the test compound by LC/MS/MS.
2.6 Liquid Phase Analysis • Liquid phase conditions: Shimadzu LC-20AD pump • Mass spectrometry conditions: AB Sciex API 4000 mass spectrometer • Chromatographic column: phenomenex Gemiu 5 μM C18 50×4.6 mm • Mobile phase: Liquid A was 0.1% formic acid aqueous solution, liquid B was acetonitrile • Flow rate: 0.8 mL/min • Elution time: 0-4.0 minutes, the eluent was as follows:
The main pharmacokinetic parameters were calculated by WinNonlin 6.1 and the results of the mouse pharmacokinetic experiments were shown in Table 13 below.

T1 sequence (P35968 20-1356): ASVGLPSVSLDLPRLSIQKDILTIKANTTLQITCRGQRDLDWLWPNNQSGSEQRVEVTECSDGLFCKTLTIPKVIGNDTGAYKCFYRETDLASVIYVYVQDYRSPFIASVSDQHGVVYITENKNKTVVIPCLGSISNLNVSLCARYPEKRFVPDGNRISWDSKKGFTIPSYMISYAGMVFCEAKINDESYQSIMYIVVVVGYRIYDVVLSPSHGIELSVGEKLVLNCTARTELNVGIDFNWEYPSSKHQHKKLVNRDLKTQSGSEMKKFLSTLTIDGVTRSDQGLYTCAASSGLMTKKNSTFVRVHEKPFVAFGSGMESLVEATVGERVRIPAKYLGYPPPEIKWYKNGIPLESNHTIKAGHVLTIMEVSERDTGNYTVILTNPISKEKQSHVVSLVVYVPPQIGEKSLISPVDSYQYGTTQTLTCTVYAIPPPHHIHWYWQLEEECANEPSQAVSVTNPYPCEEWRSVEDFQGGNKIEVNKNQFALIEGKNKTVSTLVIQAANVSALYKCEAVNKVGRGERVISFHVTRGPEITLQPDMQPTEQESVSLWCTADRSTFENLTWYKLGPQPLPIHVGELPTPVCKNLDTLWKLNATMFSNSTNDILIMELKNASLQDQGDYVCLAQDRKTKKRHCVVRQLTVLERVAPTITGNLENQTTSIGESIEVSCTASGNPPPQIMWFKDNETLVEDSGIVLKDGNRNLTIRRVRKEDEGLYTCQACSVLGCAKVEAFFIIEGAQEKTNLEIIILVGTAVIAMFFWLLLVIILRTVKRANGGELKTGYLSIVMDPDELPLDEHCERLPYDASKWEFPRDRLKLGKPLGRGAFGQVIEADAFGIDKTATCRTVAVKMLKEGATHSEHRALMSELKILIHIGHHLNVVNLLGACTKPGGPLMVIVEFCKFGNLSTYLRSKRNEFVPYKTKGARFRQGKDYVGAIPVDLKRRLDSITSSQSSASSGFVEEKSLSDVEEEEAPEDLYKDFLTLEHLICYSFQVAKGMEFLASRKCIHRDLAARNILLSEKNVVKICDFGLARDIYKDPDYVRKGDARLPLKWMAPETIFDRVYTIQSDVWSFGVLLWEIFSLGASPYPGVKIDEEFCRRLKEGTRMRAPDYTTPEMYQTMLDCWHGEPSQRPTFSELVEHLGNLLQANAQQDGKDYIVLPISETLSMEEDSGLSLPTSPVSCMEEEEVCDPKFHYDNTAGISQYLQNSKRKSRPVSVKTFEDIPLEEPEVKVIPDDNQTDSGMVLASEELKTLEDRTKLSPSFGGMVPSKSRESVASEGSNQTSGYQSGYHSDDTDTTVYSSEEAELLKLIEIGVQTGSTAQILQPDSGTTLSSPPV
T2 sequence (P07949 whole entry, change not shown, the tested form may be a part): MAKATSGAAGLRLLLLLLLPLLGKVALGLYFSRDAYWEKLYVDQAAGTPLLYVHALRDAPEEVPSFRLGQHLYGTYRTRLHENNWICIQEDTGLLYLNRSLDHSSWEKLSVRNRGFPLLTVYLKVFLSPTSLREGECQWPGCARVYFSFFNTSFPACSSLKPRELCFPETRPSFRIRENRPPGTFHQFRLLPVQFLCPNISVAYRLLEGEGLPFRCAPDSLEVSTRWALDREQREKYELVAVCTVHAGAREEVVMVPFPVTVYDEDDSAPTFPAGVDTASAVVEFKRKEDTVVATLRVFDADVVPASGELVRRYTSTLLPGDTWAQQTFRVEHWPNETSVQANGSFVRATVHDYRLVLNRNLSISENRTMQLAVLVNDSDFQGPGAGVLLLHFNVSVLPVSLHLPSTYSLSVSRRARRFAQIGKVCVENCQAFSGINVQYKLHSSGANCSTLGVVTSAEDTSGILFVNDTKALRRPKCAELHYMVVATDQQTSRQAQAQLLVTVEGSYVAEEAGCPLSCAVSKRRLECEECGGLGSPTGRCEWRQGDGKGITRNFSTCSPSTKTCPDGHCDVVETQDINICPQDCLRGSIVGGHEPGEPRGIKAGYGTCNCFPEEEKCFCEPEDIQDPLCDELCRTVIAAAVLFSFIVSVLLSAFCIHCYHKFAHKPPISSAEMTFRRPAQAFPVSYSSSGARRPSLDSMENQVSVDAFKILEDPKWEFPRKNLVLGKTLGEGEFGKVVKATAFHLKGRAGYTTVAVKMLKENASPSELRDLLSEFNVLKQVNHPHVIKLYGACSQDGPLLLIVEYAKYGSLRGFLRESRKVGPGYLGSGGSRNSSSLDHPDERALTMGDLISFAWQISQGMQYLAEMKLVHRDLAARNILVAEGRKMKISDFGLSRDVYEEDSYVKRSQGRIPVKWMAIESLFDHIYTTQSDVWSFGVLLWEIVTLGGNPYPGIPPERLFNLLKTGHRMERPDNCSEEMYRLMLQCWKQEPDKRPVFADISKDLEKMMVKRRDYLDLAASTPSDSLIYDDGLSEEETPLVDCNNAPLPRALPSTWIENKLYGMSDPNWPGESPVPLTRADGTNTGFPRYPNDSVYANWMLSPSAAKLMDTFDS

With `COc1ccc(CN2C3CC2CN(c2ccc(-c4cc(OCC[S+](C)[O-])cn5ncc(C#N)c45)cn2)C3)cn1` (stereo not drawn) [Embodiment 1, 4-(6-(6-((6-Methoxypyridin-3-yl)methyl)-3,6-diazabicyclo[3.1.1]heptan-3-yl)pyridin-3-yl)-6-(2-(methylsulfinyl)ethoxy)pyrazolo[1,5-a]pyridine-3-carbonitrile], the IC50 (usually the concentration needed to halve the response being measured) is 28 nM in series [1], 24.6 nM in series [2], 11.5 nM in series [3] and 0.47 nM in series [4]. Further, the “Ratio (KDR/RET)” value in series [1] is given as 59.
With `COc1ncc(CN2C3CC2CN(c2ccc(-c4cc(OCC5CC(C)(O)C5)cn5ncc(C#N)c45)cn2)C3)cc1F` (stereo not drawn) [Embodiment 72, 4-(6-(6-((5-Fluoro-6-methoxypyridin-3-yl)methyl)-3,6-diazabicyclo[3.1.1]heptan-3-yl)pyridin-3-yl)-6-((cis-3-hydroxy-3-methylcyclobutyl)methoxy)pyrazolo[1,5-a]pyridine-3-carbonitrile], the IC50 in series [1] is 7.4 nM; in series [2] it was 8.59 nM; in series [3] it was 13.9 nM; in series [4], 0.37 nM. Also, the “Ratio (KDR/RET)” value in series [1] was determined as 20.
For `CNC(=O)C12CC(COc3cc(-c4ccc(N5CC6CC(C5)N6Cc5ccc(OC)nc5)nc4)c4c(C#N)cnn4c3)(C1)C2` [Embodiment 67, 3-(((3-Cyano-4-(6-(6-((6-methoxypyridin-3-yl)methyl)-3,6-diazabicyclo[3.1.1]heptan-3-yl)pyridin-3-yl)pyrazolo[1,5-a]pyridin-6-yl)oxy)methyl)-N-methylbicyclo[1.1.1]pentane-1-carboxamide] the same measures were 4 nM, 5.33 nM, 6.84 nM, 0.25 nM and 16.
On to `COc1ccc(CN2C3CC2CN(c2ccc(-c4cc(OC[C@H]5C[C@@](C)(O)C5)cn5ncc(C#N)c45)cn2)C3)cn1` [Embodiment 44, 6-((Cis-3-hydroxy-3-methylcyclobutyl)methoxy)-4-(6-(6-((6-methoxypyridin-3-yl)methyl)-3,6-diazabicyclo[3.1.1]heptan-3-yl)pyridin-3-yl)pyrazolo[1,5-a]pyridine-3-carbonitrile], for which the IC50 in series [2] was 15.3 nM; in series [3] it was 12.2 nM. In addition, in series [5] (read-out: Average residence time MRT), the MRT (as a rule, the average time that molecules of a dose stay in the body) is 5.22 h. Also, the Cmax in series [5] (read-out: Blood concentration Cmax) is 1620 ng/mL. For the same compound, the AUC(0-t) in series [5] (read-out: Curve area AUC0-t) stood at 14000 ng·h/mL. Further, the AUC(0-inf) in series [5] (read-out: Curve area AUC0-∞) was 14000 ng·h/mL. Moreover, the half-life in series [5] (read-out: Half-life t1/2 (converted)) was 3.45 h. In series [5] (read-out: Peak time tmax), the Tmax (in general, the time at which the peak concentration occurs) came out at 0.5 h.
Consider `COc1ccc(CN2C3CC2CN(c2ccc(-c4cc(C#CC5(O)CCC5)cn5ncc(C#N)c45)cn2)C3)cn1` [Embodiment 82, 6-((1-Hydroxycyclobutyl)ethynyl)-4-(6-(6-((6-methoxypyridin-3-yl)methyl)-3,6-diazabicyclo[3.1.1]heptan-3-yl)pyridin-3-yl)pyrazolo[1,5-a]pyridine-3-carbonitrile], for which the 50% inhibitory concentration (IC50) came to 21.9 nM in series [2] and 17.8 nM in series [3].
For the compound `COc1ccc(CN2C3CC2CN(c2ccc(-c4cc(OCC56CC(CO)(C5)C6)cn5ncc(C#N)c45)cn2)C3)cn1` [Embodiment 45, 6-((3-(Hydroxymethyl)bicyclo[1.1.1]pentan-1-yl)methoxy)-4-(6-(6-((6-methoxypyridin-3-yl)methyl)-3,6-diazabicyclo[3.1.1]heptan-3-yl)pyridin-3-yl)pyrazolo[1,5-a]pyridine-3-carbonitrile], the half-maximal inhibitory concentration (IC50) in series [2] was determined as 7.06 nM; in series [3], 9.17 nM.
With `COc1ccc(CN2C3CC2CN(c2ccc(-c4cc(C#CC5(O)COC5)cn5ncc(C#N)c45)cn2)C3)cn1` [Embodiment 80, 6-((3-Hydroxyoxetan-3-yl)ethynyl)-4-(6-(6-((6-methoxypyridin-3-yl)methyl)-3,6-diazabicyclo[3.1.1]heptan-3-yl)pyridin-3-yl)pyrazolo[1,5-a]pyridine-3-carbonitrile], the IC50 was determined as 23.9 nM in series [2] and 17.3 nM in series [3].
On to `COc1ccc(CN2C3CC2CN(c2ccc(-c4cc(OCC56CC(C(N)=O)(C5)C6)cn5ncc(C#N)c45)cn2)C3)cn1` [Embodiment 66, 3-(((3-Cyano-4-(6-(6-((6-methoxypyridin-3-yl)methyl)-3,6-diazabicyclo[3.1.1]heptan-3-yl)pyridin-3-yl)pyrazolo[1,5-a]pyridin-6-yl)oxy)methyl)bicyclo[1.1.1]pentane-1-carboxamide], for which the IC50 turned out to be 3 nM in series [1], 14.8 nM in series [2], 5.18 nM in series [3] and 0.25 nM in series [4]. In series [1], the “Ratio (KDR/RET)” value stood at 12.
With `Cc1ccc(F)cc1C(=O)NC1(C)CCN(c2ccc(-c3cc(C#CC(C)(C)N)cn4ncc(C#N)c34)cn2)CC1` [Embodiment 87, N-(1-(5-(6-(3-amino-3-methylbut-1-yn-1-yl)-3-cyanopyrazolo[1,5-a]pyridin-4-yl)pyridin-2-yl)-4-methylpiperidin-4-yl)-5-fluoro-2-methylbenzamide], the half-maximal inhibitory concentration (IC50) in series [2] was found to be 18.5 nM; in series [3], 23.6 nM.
The corresponding values for `COc1ncc(CN2C3CC2CN(c2ccc(-c4cc(C#CC5(O)CCOCC5)cn5ncc(C#N)c45)cn2)C3)cc1F` [Embodiment 79, 4-(6-(6-((5-Fluoro-6-methoxypyridin-3-yl)methyl)-3,6-diazabicyclo[3.1.1]heptan-3-yl)pyridin-3-yl)-6-((4-hydroxytetrahydro-2H-pyran-4-yl)ethynyl)pyrazolo[1,5-a]pyridine-3-carbonitrile] are 13.7 nM and 10.5 nM.
For `COc1ccc(CN2C3CC2CN(c2ccc(-c4cc(C#C[C@@H](C)O)cn5ncc(C#N)c45)cn2)C3)cn1` [Embodiment 22, 6-((R)-3-Hydroxybut-1-yn-1-yl)-4-(6-(6-((6-methoxypyridin-3-yl)methyl)-3,6-diazabicyclo[3.1.1]heptan-3-yl)pyridin-3-yl)pyrazolo[1,5-a]pyridine-3-carbonitrile], the 50% inhibitory concentration (IC50) in series [1] turned out to be 24 nM; in series [2] it was 16.9 nM; in series [3], 20.7 nM; in series [4] it was 0.32 nM. The “Ratio (KDR/RET)” value in series [1] was 75.
On to `CC1(O)CN(c2cc(-c3ccc(N4CCC(C)(NC(=O)c5ncccc5Cl)CC4)nc3)c3c(C#N)cnn3c2)C1` [Embodiment 95, 3-Chloro-N-(1-(5-(3-cyano-6-(3-hydroxy-3-methylazetidin-1-yl)pyrazolo[1,5-a]pyridin-4-yl)pyridin-2-yl)-4-methylpiperidin-4-yl)picolinamide], for which the half-inhibitory concentration (IC50) was found to be 24 nM in series [1], 22.5 nM in series [2], 15 nM in series [3] and 1 nM in series [4]. Further, the “Ratio (KDR/RET)” value in series [1] was determined as 24.

Values taken from US20230406865A1, “CRYSTAL FORM OF FREE BASE OF INHIBITOR CONTAINING BICYCLIC RING DERIVATIVE AND PREPARATION METHOD AND APPLICATION OF CRYSTAL FORM” (SHANGHAI HANSOH BIOMEDICAL CO., LTD., priority 2020, published 2023).
